According to ChEMBL document CHEMBL1201862, “PubChem BioAssay data set” (2004):
Active and inactive are the calls of the source.

Legend:
[1] = T. cruzi growth inhibition in host cells, dose response, cell-based, plate reader, dry powder, set 2 (AID 652275); assay type: functional
[2] = T. cruzi intracellular amastigote growth inhibition, dose response, imaging, CA-I/72 strain, bovine embryo skeletal muscle, dry powder (AID 651885); assay type: functional, cell-based
[3] = A Cell-Based Confirmatory Screen for Compounds that Inhibit VEEV, TC-83 (3).; assay type: functional
[4] = Vero 76 cell cytotoxicity, dose response, cytotoxicity control, set 3 (AID 602439); assay type: functional; conditions: Venezuelan equine encephalitis virus
[5] = inhibitors of non-replicating M. tuberculosis, dose response, luciferase, dry powder (AID 651619); assay type: functional; conditions: Mycobacterium tuberculosis
[6] = inhibitors of non-replicating M. tuberculosis, dose response, luciferase, dry powder (AID 651620); assay type: functional; conditions: Mycobacterium tuberculosis
[7] = biological target: Beta-galactosidase (Escherichia coli, UniProt Q8VNN2); experiment: Dose response counterscreen for EBI2 assay utilizing the enzyme, b-galactosidase.; assay type: functional
[8] = system: HeLa; experiment: HeLa cell cytotoxicity, dose response, cytotoxicity control, ATP luminescence, cherry-pick samples (AID 687004); assay type: functional, cell-based; conditions: Homo sapiens
[9] = biological target: Protein Wnt-3a (Mus musculus, UniProt P27467); experiment: SAR analysis of small molecule antagonists of Gli-SUFU in a Wnt3a luminescent reporter assay.; assay type: functional
[10] = biological target: T1, Disintegrin and metalloproteinase domain-containing protein 17 (Homo sapiens, UniProt P78536); experiment: exosite inhibitors of ADAM17, dose response, biochemical (AID 743260)
[11] = biological target: T2, NAD-dependent protein deacylase sirtuin-5, mitochondrial (Homo sapiens, UniProt Q9NXA8); experiment: SIRT5 deacylase inhibitors, dose response, biochemical, fluorescence imaging, cherry-pick, set 6 (AID 720597)
[12] = biological target: T2, NAD-dependent protein deacylase sirtuin-5, mitochondrial; experiment: SIRT5 desuccinylase inhibitors, dose response, biochemical, fluorescence imaging, cherry-pick, set 5 (AID 720591);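 note: desuccinylation of succinyl peptide AMC substrate read as fluorescence after trypsin release; potency of inhibitors that lower fluorescence and may act on trypsin instead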
[13] = biological target: Fatty acid synthase (Homo sapiens, UniProt P49327); experiment: FAS thioesterase domain inhibitors, SAR follow-up, biochemical, endpoint fluorescence intensity, powder samples (AID 652164); assay type: functional
[14] = biological target: T3, Oxysterols receptor LXR-beta (Homo sapiens, UniProt P55055); assay type: functional, cell-based
[15] = biological target: T4, Short transient receptor potential channel 4 (Mus musculus, UniProt Q9QUQ5); experiment: mouse TRPC4 channel inhibitors, dose response, cell-based, HEK293 TRPC4/mu-opioid, Fluo-4 calcium (AID 434942); assay type: functional;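 note: potency of inhibitors blocking the TRPC4 calcium response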
T4 sequence (Q9QUQ5 whole entry): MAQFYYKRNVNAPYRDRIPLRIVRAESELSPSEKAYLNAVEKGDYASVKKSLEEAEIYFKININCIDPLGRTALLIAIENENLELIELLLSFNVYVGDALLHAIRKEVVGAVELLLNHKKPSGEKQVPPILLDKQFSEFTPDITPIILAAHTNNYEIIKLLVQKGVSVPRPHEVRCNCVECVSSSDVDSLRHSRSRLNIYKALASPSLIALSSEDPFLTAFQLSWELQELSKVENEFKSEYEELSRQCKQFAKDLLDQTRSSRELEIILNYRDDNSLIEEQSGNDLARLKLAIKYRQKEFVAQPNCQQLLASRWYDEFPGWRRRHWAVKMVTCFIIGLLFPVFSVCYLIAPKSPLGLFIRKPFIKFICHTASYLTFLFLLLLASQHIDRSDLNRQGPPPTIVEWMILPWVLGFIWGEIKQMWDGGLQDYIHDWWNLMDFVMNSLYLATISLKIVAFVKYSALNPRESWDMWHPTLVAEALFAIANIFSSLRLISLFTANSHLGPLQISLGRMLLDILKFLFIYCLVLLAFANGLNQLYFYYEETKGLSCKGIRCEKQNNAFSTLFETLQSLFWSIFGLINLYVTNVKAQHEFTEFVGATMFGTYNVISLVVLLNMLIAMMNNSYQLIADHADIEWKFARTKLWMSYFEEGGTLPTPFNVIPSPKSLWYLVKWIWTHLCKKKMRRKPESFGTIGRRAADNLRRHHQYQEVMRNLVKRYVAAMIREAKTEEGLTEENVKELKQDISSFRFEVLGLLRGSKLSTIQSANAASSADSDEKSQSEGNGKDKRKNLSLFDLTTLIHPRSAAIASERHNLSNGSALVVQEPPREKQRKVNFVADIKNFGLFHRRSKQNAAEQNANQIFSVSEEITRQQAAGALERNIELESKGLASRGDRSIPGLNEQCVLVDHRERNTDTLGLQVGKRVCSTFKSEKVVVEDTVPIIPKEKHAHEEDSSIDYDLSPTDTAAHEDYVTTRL

[16] = biological target: ADP-ribosylation factor GTPase-activating protein 1 (Rattus norvegicus, UniProt Q62848); experiment: Fluorescence polarization-based biochemical high throughput dose response screening assay to identify inhibitors of ADP-ribosylation factor GTPase activating protein 1 (ARFGAP1).; assay type: functional
[17] = biological target: Arf-GAP with SH3 domain, ANK repeat and PH domain-containing protein 1 (Homo sapiens, UniProt Q9ULH1); assay type: functional;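 note: biochemical fluorescence polarization dose–response screen measuring inhibition of ASAP1; ASAP1 GAP domain stimulating GTP hydrolysis by truncated human ARF1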
[18] = ADAM10 inhibitors, peptide cleavage, dose response, biochemical, QFRET (AID 743254);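 note: ADAM10 enzyme with the DM2 quenched FRET peptide as substrate; EDANS fluorescence gain as the protease cuts the substrate; inhibitor potency against ADAM10 proteolytic activity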
[19] = biological target: T1, Disintegrin and metalloproteinase domain-containing protein 17; experiment: ADAM17 protease inhibitors, dose response, counter-screen for ADAM10 exosite inhibitor project, biochemical, quenched FRET substrate (AID 743253)
[20] = biological target: Major prion protein (Homo sapiens, UniProt P04156); assay type: functional, cell-based
[21] = cells
[22] = HEK293 cell cytotoxicity, dose response, cytotoxicity control, cherry-picks, set 5 (AID 1053117); assay type: functional, cell-based
[23] = inhibitors of fibronectin matrix deposition, dose response, AH1F cells, Alexa488-FN fluorescence, cherry-picks (AID 1035475); assay type: functional, cell-based
[24] = biological target: T5, Lysine-specific demethylase 4C (Homo sapiens, UniProt Q9H3R0); experiment: GASC-1 (JMJD2C) histone demethylase inhibitors, dose response, biochemical, DELFIA europium, cherry-picked samples (AID 488835); assay type: functional
T5 sequence (Q9H3R0 whole entry): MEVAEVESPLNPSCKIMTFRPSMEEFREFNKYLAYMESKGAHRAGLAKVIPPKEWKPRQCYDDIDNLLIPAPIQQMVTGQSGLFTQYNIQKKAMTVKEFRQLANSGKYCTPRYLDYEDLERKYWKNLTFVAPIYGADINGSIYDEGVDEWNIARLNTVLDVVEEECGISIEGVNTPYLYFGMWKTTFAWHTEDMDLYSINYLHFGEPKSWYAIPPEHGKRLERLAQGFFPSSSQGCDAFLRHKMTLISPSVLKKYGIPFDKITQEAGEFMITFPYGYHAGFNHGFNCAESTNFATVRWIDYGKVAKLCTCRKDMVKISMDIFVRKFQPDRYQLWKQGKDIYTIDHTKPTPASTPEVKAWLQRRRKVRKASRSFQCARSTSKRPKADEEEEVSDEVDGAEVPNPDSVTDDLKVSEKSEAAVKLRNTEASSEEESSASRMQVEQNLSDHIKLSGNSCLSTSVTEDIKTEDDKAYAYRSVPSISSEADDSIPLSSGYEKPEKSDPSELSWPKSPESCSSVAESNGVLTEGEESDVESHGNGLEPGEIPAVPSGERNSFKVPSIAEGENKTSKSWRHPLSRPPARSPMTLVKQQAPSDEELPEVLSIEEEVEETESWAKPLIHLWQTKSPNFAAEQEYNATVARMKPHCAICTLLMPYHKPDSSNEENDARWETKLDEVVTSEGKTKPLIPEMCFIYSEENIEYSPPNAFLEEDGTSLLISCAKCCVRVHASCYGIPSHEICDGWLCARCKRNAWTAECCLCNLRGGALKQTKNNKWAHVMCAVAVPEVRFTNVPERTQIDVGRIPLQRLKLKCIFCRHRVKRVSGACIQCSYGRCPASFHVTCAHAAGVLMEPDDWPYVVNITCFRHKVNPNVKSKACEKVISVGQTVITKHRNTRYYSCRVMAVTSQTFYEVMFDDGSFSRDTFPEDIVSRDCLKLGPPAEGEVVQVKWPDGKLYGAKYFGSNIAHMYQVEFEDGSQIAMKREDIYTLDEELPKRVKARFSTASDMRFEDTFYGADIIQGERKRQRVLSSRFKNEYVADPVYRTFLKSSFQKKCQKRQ

[25] = biological target: Mu-type opioid receptor (Homo sapiens, UniProt P35372); assay type: functional, cell-based;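 note: U2OS cells with beta-arrestin recruitment to OPRM1 by beta-gal complementation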
[26] = biological target: 5-hydroxytryptamine receptor 2A (Mus musculus, UniProt P35363); assay type: functional, cell-based;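 note: CHO-K1 cells with tagged receptor and beta-arrestin; agonist potency measured as compound-induced activation of the receptor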
[27] = biological target: T6, DNA repair protein RAD52 homolog (Homo sapiens, UniProt P43351); assay type: functional, biochemical
T6 sequence (P43351 whole entry): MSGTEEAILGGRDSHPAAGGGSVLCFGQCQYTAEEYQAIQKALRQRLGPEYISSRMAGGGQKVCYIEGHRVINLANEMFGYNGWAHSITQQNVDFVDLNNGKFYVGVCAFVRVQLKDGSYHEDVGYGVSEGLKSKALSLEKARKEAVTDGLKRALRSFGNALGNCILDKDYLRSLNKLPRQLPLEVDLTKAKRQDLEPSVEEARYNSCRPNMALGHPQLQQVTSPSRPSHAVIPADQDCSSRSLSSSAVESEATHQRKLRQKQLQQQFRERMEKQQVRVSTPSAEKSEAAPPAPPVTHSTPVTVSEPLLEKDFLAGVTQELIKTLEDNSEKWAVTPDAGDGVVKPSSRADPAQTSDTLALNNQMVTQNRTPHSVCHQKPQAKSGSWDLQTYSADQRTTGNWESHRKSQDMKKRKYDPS

[28] = A549 cell cytotoxicity, dose response, cytotoxicity control, plate reader, cherry-pick, antagonist series (AID 743412); assay type: functional, cell-based
[29] = LGR2 antagonists, dose response, cell-based, HEK293, CRE-luciferase reporter, cherry pick (AID 743342); assay type: functional
[30] = biological target: T3, Oxysterols receptor LXR-beta; assay type: functional, cell-based; remark: listed apart in the source
[31] = cells; remark: listed apart in the source
[32] = HepG2 cell cytotoxicity, dose response, cytotoxicity control, ATP luminescence, cherry-pick, activator set 2 (AID 1053143); assay type: functional, cell-based
[33] = system: HEK293; experiment: HEK293T cell cytotoxicity, dose response, cytotoxicity control, ATP luminescence, cherry-pick samples (AID 687005); assay type: functional, cell-based; conditions: Homo sapiens;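 note: cells exposed to compound for 48 hours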
[34] = HEK293 Cytotoxicity Assay Measured in Cell-Based System Using Plate Reader - 7071-01_Inhibitor_Dose_CherryPick_Activity_Set2.; assay type: functional

CC(C)N1C[C@H](C)[C@@H](CN(C)Cc2ccc(Cl)cc2)Oc2c(NC(=O)c3ccncc3)cccc2C1=O
AC50 [1]: 0.000541 µM (active) | IC50 [2]: 0.00107 µM (active)

Cc1cc(Cc2cc(C)cc(C(C)(C)C)c2O)c(O)c(Cc2cc(C)cc(C(C)(C)C)c2O)c1
IC50 [3]: > 25 µM (active) | CC50 [4]: 43.1 µM (active)

CSc1nnc(-c2ccccc2)o1
IC90 [5]: 125 µM (active) | IC90 [6]: 125 µM (active)

CS(=O)(=O)N(CC(=O)NCCSc1ccc(Cl)cc1)c1ccc2c(c1)OCO2
IC50 [7]: > 80 µM (inactive)

O=C(CN1CCOCC1)N1CC[C@@H]2[C@@H](CO)Nc3ccc(-c4ccccc4F)cc3[C@@H]21
AC50 [8]: < 0.195 µM (active)

O=C(Nc1cc(N2CCCC2)ncn1)c1cccc(F)c1
IC50 [9]: > 21.8 µM (inactive)

COc1cccc(C2C(C#N)=C(N)Oc3c2oc(CO)cc3=O)c1 (stereo not given)
IC50 [10]: > 69.5 µM (inactive)

CCC(=O)N1CC[C@@H]2[C@@H](CO)Nc3ccc(C#Cc4cccnc4)cc3[C@@H]21
AC50 [11]: > 30 µM (inactive)

O=C(CCC(=O)OCc1ccc(Br)cc1)Nc1ccccc1
AC50 [12]: > 30 µM (inactive)

CC1CCN(S(=O)(=O)c2ccc(-c3csc(NC(=O)C4CC4)n3)cc2)CC1
IC50 [13]: > 80 µM (inactive)

Nc1c(OS(=O)(=O)c2ccccc2)cccc1OS(=O)(=O)c1ccccc1
EC50 [14]: > 67.5 µM (inactive)

COC(=O)CSc1nnc2n(-c3ccc(OC)cc3)c(=O)c3c4c(sc3n12)CCCCC4
EC50 [15]: 1.5 µM (active) | IC50 [16]: 38.1 µM (inactive) | IC50 [17]: 28.2 µM (inactive)

O=C(Nc1ccc2c(c1)OCCO2)C(c1ccnc2ccccc12)N1CCC(Cc2ccccc2)CC1 (stereo not given)
IC50 [18]: > 69.5 µM (inactive) | IC50 [19]: > 69.5 µM (inactive)

O=C(C1=C(O)C(=O)N(CCN2CCOCC2)C1c1cccc(F)c1)c1cc2ccccc2o1 (stereo not given)
IC50 [20]: 6.77 µM (active) | IC50 [21]: > 138 µM (inactive)

COc1cccc(-c2ccc3c(c2)[C@@H]2[C@@H](CCN2S(=O)(=O)c2cccc(OC)c2)[C@H](CO)N3)c1
AC50 [22]: 30.5 µM (active) | AC50 [23]: 57.8 µM (active)

NCC(O)c1cc(O)c(O)cc1F (stereo not given)
AC50 [24]: 11.2 µM (active) | EC50 [25]: 92.6 µM (inactive) | EC50 [26]: 0.724 µM (active) | AC50 [27]: 6.44 µM (active)

C[C@H](CO)N1C[C@H](C)[C@H](CN(C)C(=O)Nc2ccccc2)OCCCC[C@H](C)Oc2ccc(NC(=O)CCC(F)(F)F)cc2C1=O
AC50 [28]: > 52 µM (inactive) | AC50 [29]: 13.9 µM (active)

Fc1cccc(F)c1/C=N/Nc1ccccn1
EC50 [30]: > 67.5 µM (inactive) | EC50 [31]: > 67.5 µM (inactive)

Cc1nc2ccccc2n1CC(O)COc1ccccc1Cl (stereo not given)
EC50 [15]: 3.35 µM (active) | AC50 [32]: > 52 µM (inactive)

Cc1ccc(S(=O)(=O)N2CC[C@@H]3[C@H]2c2cc(-c4ccccc4F)ccc2N[C@@H]3CO)cc1
AC50 [33]: > 47 µM (inactive) | AC50 [34]: > 47 µM (inactive)
